Measurements: patent US11267808B2, “Benzamide derivatives as PPAR-gamma modulators” (MEDIBIOFARMA, S.L., priority 2017, dated 2022)

Target: Human PPAR-gamma (Homo sapiens (Human), UniProt P37231)
Assay: Human PPAR-gamma (h) (agonist radioligand) binding assay
Conditions: inhibition of radioligand specific binding; class ranges defined in μM
Protocol: The compounds of the present invention were assayed for binding to the Human PPAR-gamma (h) (agonist radioligand) Assay and were tested at several concentrations for IC50 determination.
Compound binding was calculated as a % inhibition of the binding of a radioactively labelled ligand specific for each target, as described in (FERRY, Gilles, et al. Binding of prostaglandins to human PPARγ: tool assessment and new natural ligands. European journal of pharmacology, 2001, vol. 417, no 1, p. 77-89).
The IC50 values (concentration causing a half-maximal inhibition of control specific binding) was determined by non-linear regression analysis of the competition curves generated with mean replicate values using Hill equation curve fitting
where Y=specific binding, A=left asymptote of the curve, D=right asymptote of the curve, C=compound concentration, C50=IC50, and nH=slope factor. This analysis was performed using software developed at EUROFINS Cerep Company (Hill software) and validated by comparison with data generated by the commercial software SigmaPlot® 4.0 for Windows® (© 1997 by SPSS Inc.).

Chain of Human PPAR-gamma (P37231 whole entry): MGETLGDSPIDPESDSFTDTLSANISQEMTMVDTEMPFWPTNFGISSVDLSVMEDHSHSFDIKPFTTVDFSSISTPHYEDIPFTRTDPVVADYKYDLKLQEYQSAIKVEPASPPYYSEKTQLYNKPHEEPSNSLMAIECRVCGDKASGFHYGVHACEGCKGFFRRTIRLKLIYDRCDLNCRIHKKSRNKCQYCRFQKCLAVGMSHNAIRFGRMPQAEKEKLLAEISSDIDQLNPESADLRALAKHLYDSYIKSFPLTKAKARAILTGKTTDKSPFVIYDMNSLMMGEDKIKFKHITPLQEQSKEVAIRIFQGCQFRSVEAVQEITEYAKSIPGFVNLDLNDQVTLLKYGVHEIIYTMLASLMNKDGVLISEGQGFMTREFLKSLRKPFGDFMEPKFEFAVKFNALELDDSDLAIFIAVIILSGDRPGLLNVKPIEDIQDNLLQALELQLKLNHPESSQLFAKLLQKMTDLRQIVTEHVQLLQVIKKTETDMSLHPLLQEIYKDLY

SMILES | IC50 [µM]
N#Cc1ccc(Cl)c(C(=O)Nc2ccc(-c3ccccc3)nc2)c1 [Example 2, 2-chloro-5-cyano-N-(6-phenylpyridin-3-yl)benzamide] | < 0.2
N#Cc1ccc(Cl)c(C(=O)Nc2ccnc(-c3ccc(F)cc3)c2)c1 [Example 3, 2-chloro-5-cyano-N-(2-(4-fluorophenyl)pyridin-4-yl)benzamide] | 0.2 to 1
N#Cc1ccc(F)c(C(=O)Nc2ccc(-c3ccc(F)cc3)nc2)c1 [Example 10, 5-cyano-2-fluoro-N-(6-(4-fluorophenyl)pyridin-3-yl)benzamide] | < 0.2
CN1CCN(c2ccc(NC(=O)c3cc(C#N)ccc3Cl)cn2)CC1 [Example 14, 2-chloro-5-cyano-N-(6-(4-methylpiperazin-1-yl)pyridin-3-yl)benzamide] | 1 to 50
N#Cc1ccc(Cl)c(C(=O)Nc2ccc(-c3ccncc3)nc2)c1 [Example 7, N-([2,4′-bipyridin]-5-yl)-2-chloro-5-cyanobenzamide] | 1 to 50
N#Cc1ccc(Cl)c(C(=O)Nc2ccnc(-c3cccnc3)c2)c1 [Example 6, N-([2,3′-bipyridin]-4-yl)-2-chloro-5-cyanobenzamide] | 1 to 50
N#Cc1ccc(Cl)c(C(=O)Nc2ccc(-c3cccnc3)nc2)c1 [Example 5, N-([2,3′-bipyridin]-5-yl)-2-chloro-5-cyanobenzamide] | < 0.2
CN1CCN(c2cc(NC(=O)c3cc(C#N)ccc3Cl)ccn2)CC1 [Example 15, 2-chloro-5-cyano-N-(2-(4-methylpiperazin-1-yl)pyridin-4-yl)benzamide] | ≥ 50
N#Cc1ccc(Cl)c(C(=O)Nc2ccnc(N3CCOCC3)c2)c1 [Example 16, 2-chloro-5-cyano-N-(2-morpholinopyridin-4-yl)benzamide] | 1 to 50
N#Cc1ccc(Cl)c(C(=O)Nc2ccc(-c3ccccn3)nc2)c1 [Example 13, N-([2,2′-bipyridin]-5-yl)-2-chloro-5-cyanobenzamide] | < 0.2
N#Cc1ccc(Cl)c(C(=O)Nc2ccnc(-c3ccccc3)c2)c1 [Example 1, 2-chloro-5-cyano-N-(2-phenylpyridin-4-yl)benzamide] | < 0.2
N#Cc1ccc(Cl)c(C(=O)Nc2ccc(-c3ccc(F)cc3)nc2)c1 [Example 4, 2-chloro-5-cyano-N-(6-(4-fluorophenyl)pyridin-3-yl)benzamide] | < 0.2
N#Cc1ccc(F)c(C(=O)Nc2ccc(-c3cccnc3)nc2)c1 [Example 9, N-([2,3′-bipyridin]-5-yl)-5-cyano-2-fluorobenzamide] | < 0.2
N#Cc1ccc(Cl)c(C(=O)Nc2ccc(N3CCOCC3)nc2)c1 [Example 17, 2-chloro-5-cyano-N-(6-morpholinopyridin-3-yl)benzamide] | 1 to 50
